From ChEMBL document CHEMBL4359904, “Structural tuning of acridones for developing anticancer agents targeting dihydrofolate reductase” (Bioorg Med Chem Lett, 2019)
Activity calls are given as the source filed them. The calls are words filed in the database; no cut-off is given here.

Columns and labels:
MDA-MB-435 = assay: Growth inhibition of human MDA-MB-435 cells incubated for 48 hrs by sulforhodamine B assay; assay type: functional; settings: MDA-MB-435, 48 h; for CC50: read-out: pLC50 (the source's name) (converted); for TGI: read-out: pTGI (converted)
SN12C = assay: Growth inhibition of human SN12C cells incubated for 48 hrs by sulforhodamine B assay; assay type: functional; settings: for CC50: read-out: pLC50 (the source's name) (converted); for TGI: read-out: pTGI (converted)
HCC 2998 = assay: Growth inhibition of human HCC2998 cells incubated for 48 hrs by sulforhodamine B assay; assay type: functional; settings: HCC 2998, 48 h; for CC50: read-out: pLC50 (the source's name) (converted); for TGI: read-out: pTGI (converted)
NCI-H322M = assay: Growth inhibition of human NCI-H322M cells incubated for 48 hrs by sulforhodamine B assay; assay type: functional; settings: for CC50: read-out: pLC50 (the source's name) (converted); for TGI: read-out: pTGI (converted)
MOLT-4 = assay: Growth inhibition of human MOLT4 cells at 10^-5 M incubated for 48 hrs by sulforhodamine B assay relative to control; assay type: functional; settings: MOLT-4, 48 h, read-out: GI
[1] = molecular target: T1, Dihydrofolate reductase (Homo sapiens) (UniProt P00374); assay: Binding affinity to human dihydrofolate reductase at 5 uM assessed as decrease in absorption band by UV-visible spectroscopic analysis
T1 sequence (whole entry): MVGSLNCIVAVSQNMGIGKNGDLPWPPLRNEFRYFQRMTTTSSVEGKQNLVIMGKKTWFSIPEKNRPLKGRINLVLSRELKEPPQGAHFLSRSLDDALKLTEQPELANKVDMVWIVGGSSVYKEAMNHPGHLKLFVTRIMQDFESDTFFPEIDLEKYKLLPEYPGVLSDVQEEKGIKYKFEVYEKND

HCT-116 = assay: Growth inhibition of human HCT116 cells incubated for 48 hrs by sulforhodamine B assay; assay type: functional; settings: HCT-116, 48 h; for CC50: read-out: pLC50 (the source's name) (converted); for TGI: read-out: pTGI (converted)
C6 [2] = assay: Cell cycle arrest in rat C6 cells assessed as decrease in cell population at S phase measured after 24 hrs by propidium iodide staining based flow cytometry analysis; assay type: functional
SNB-75 = assay: Growth inhibition of human SNB75 cells incubated for 48 hrs by sulforhodamine B assay; assay type: functional; settings: SNB-75, 48 h; for CC50: read-out: pLC50 (the source's name) (converted); for TGI: read-out: pTGI (converted)
C6 [3] = assay: Cell cycle arrest in rat C6 cells assessed as cell population at G0/G1 phase measured after 24 hrs by propidium iodide staining based flow cytometry analysis; assay type: functional
C6 [4] = assay: Induction of morphological changes in rat C6 cells assessed as apperance of differentiated morphology with fine and elongated processes after 24 hrs by inverted microscopy analysis; assay type: functional, cell-based
Hs-578T = assay: Growth inhibition of human Hs578T cells incubated for 48 hrs by sulforhodamine B assay; assay type: functional; settings: for CC50: read-out: pLC50 (the source's name) (converted); for TGI: read-out: pTGI (converted)
OVCAR-4 = assay: Growth inhibition of human OVCAR4 cells incubated for 48 hrs by sulforhodamine B assay; assay type: functional; settings: OVCAR-4, 48 h; for CC50: read-out: pLC50 (the source's name) (converted); for TGI: read-out: pTGI (converted)
MCF7 = assay: Growth inhibition of human MCF7 cells incubated for 48 hrs by sulforhodamine B assay; assay type: functional; settings: MCF7, 48 h; for TGI: read-out: pTGI (converted)
UACC-257 = assay: Growth inhibition of human UACC257 cells incubated for 48 hrs by sulforhodamine B assay; assay type: functional; settings: UACC-257, 48 h; for CC50: read-out: pLC50 (the source's name) (converted); for TGI: read-out: pTGI (converted)
SR = assay: Growth inhibition of human SR cells at 10^-5 M incubated for 48 hrs by sulforhodamine B assay relative to control; assay type: functional; settings: read-out: GI
NCI-H460 = assay: Growth inhibition of human NCI-H460 cells at 10^-5 M cells incubated for 48 hrs by sulforhodamine B assay relative to control; assay type: functional
K562 = assay: Growth inhibition of human K562 cells incubated for 48 hrs by sulforhodamine B assay; assay type: functional; settings: K562, 48 h; for CC50: read-out: pLC50 (the source's name) (converted); for TGI: read-out: pTGI
M14 = assay: Growth inhibition of human M14 cells incubated for 48 hrs by sulforhodamine B assay; assay type: functional; settings: M14, 48 h; for CC50: read-out: pLC50 (the source's name) (converted); for TGI: read-out: pTGI (converted)
SW-620 = assay: Growth inhibition of human SW620 cells incubated for 48 hrs by sulforhodamine B assay; assay type: functional; settings: SW-620, 48 h; for TGI: read-out: pTGI (converted)
MDA-MB-231 = assay: Growth inhibition of human MDA-MB-231/ATCC cells incubated for 48 hrs by sulforhodamine B assay; assay type: functional; settings: MDA-MB-231, 48 h; for CC50: read-out: pLC50 (the source's name) (converted); for TGI: read-out: pTGI (converted)
U-251 = assay: Growth inhibition of human U251 cells incubated for 48 hrs by sulforhodamine B assay; assay type: functional; settings: U-251, 48 h; for CC50: read-out: pLC50 (the source's name) (converted); for TGI: read-out: pTGI (converted)
RPMI-8226 = assay: Growth inhibition of human RPMI8226 cells at 10^-5 M incubated for 48 hrs by sulforhodamine B assay relative to control; assay type: functional; settings: RPMI-8226, 48 h, read-out: GI
C6 [5] = assay: Cell cycle arrest in rat C6 cells assessed as increase in cell population at sub G0 phase measured after 24 hrs by propidium iodide staining based flow cytometry analysis; assay type: functional
[6] = molecular target: T1, Dihydrofolate reductase (Homo sapiens); assay: Competitive inhibition of human dihydrofolate reductase at 30 uM using varying levels of dihydrofolic acid as substrate preincubated for 1 hr in presence of NADPH followed by substrate addition by Line weaver-Burk based double reciprocal plot analysis
C6 [7] = assay: Induction of morphological changes in rat C6 cells assessed as cellular senescence by measuring cell rounding with distorted morphology after 24 hrs by inverted microscopy analysis; assay type: functional, cell-based
[8] = read-out: LC50 (the source's name)
[9] = read-out: pLC50 (the source's name) (converted)

`O=C(OC[C@@H]1CO1)c1cccc2c(=O)c3ccccc3[nH]c12` gave a GI50 (MDA-MB-435) of 1620 nM, a CC50 (MDA-MB-435) of 6610 nM and a TGI (MDA-MB-435) of 3240 nM. For the same compound, the GI50 (SN12C) was 1820 nM, the CC50 (SN12C) was 41700 nM and the TGI (SN12C) was 7080 nM. The GI50 (HCC 2998) was 1510 nM, the CC50 (HCC 2998) was 7760 nM and the TGI (HCC 2998) was 3470 nM. For the same compound, the GI50 (NCI-H322M) was 2190 nM, the CC50 (NCI-H322M) was over 100000 nM and the TGI (NCI-H322M) was 5890 nM. The inhibition of growth at 10 µM (MOLT-4) was 99%, the Activity [1] was “Active” and the GI50 (HCT-116) was 1120 nM. For the same compound, the CC50 (HCT-116) was over 100000 nM, the TGI (HCT-116) was 8710 nM and the inhibition (C6 [2]) was “Active”. The GI50 (SNB-75) was 1510 nM, the CC50 (SNB-75) was 7940 nM and the TGI (SNB-75) was 3470 nM. For the same compound, the Activity (C6 [3]) was “inactive”, the Activity (C6 [4]) was “Active” and the GI50 (Hs-578T) was 2040 nM. For the same compound, the CC50 (Hs-578T) was over 100000 nM, the TGI (Hs-578T) was 5890 nM and the GI50 (OVCAR-4) was 2400 nM. The CC50 (OVCAR-4) was over 100000 nM, the TGI (OVCAR-4) was 7940 nM and the GI50 (MCF7; read-out: GI50) was 380 nM. It also gave a CC50 (MCF7; [8]) of over 100000 nM, a GI50 (MCF7; read-out: pGI50 (converted)) of 389 nM and a CC50 (MCF7; [9]) of over 100000 nM. For the same compound, the TGI (MCF7) was 2950 nM, the GI50 (UACC-257) was 2090 nM and the CC50 (UACC-257) was 9550 nM. The TGI (UACC-257) was 4470 nM, the inhibition of growth at 10 µM (SR) was 90% and the “growth inhibition (GI)” value (NCI-H460) was 100%. For the same compound, the GI50 (K562) was 2190 nM, the CC50 (K562) was over 100000 nM and the TGI (K562) was over 100000 nM. For the same compound, the GI50 (M14) was 1660 nM, the CC50 (M14) was 9120 nM and the TGI (M14) was 3890 nM. The GI50 (SW-620; read-out: GI50) was 830 nM, the CC50 (SW-620; [8]) was over 100000 nM and the GI50 (SW-620; read-out: pGI50 (converted)) was 832 nM. For the same compound, the CC50 (SW-620; [9]) was over 100000 nM, the TGI (SW-620) was 12900 nM and the GI50 (MDA-MB-231) was 2090 nM. The CC50 (MDA-MB-231) was over 100000 nM, the TGI (MDA-MB-231) was 5250 nM and the GI50 (U-251) was 1820 nM. The CC50 (U-251) was 50100 nM, the TGI (U-251) was 7240 nM and the inhibition of growth at 10 µM (RPMI-8226) was 100%. For the same compound, the Activity (C6 [5]) was “Active” and the inhibition [6] was “Active”.
`O=c1c2ccccc2n(CC2CO2)c2ccccc12` (racemic) gave a GI50 (MDA-MB-435) of 282 nM, a CC50 (MDA-MB-435) of 4680 nM and a TGI (MDA-MB-435) of 1230 nM. It also gave a GI50 (SN12C) of 229 nM, a CC50 (SN12C) of 6170 nM and a TGI (SN12C) of 1200 nM. The GI50 (HCC 2998) was 275 nM, the CC50 (HCC 2998) was 10000 nM and the TGI (HCC 2998) was 1020 nM. The GI50 (NCI-H322M) was 2000 nM, the CC50 (NCI-H322M) was over 100000 nM and the TGI (NCI-H322M) was 7760 nM. For the same compound, the inhibition of growth at 10 µM (MOLT-4) was 100%, the Activity [1] was “Active” and the GI50 (HCT-116) was 126 nM. It also gave a CC50 (HCT-116) of over 100000 nM, a TGI (HCT-116) of 10000 nM and a GI50 (SNB-75) of 269 nM. For the same compound, the CC50 (SNB-75) was 6310 nM, the TGI (SNB-75) was 1860 nM and the Activity (C6 [3]) was “inactive”. The GI50 (Hs-578T) was 575 nM, the CC50 (Hs-578T) was over 100000 nM and the TGI (Hs-578T) was 3890 nM. For the same compound, the GI50 (OVCAR-4) was 813 nM, the CC50 (OVCAR-4) was over 100000 nM and the TGI (OVCAR-4) was 3980 nM. The GI50 (MCF7; read-out: GI50) was 50 nM, the CC50 (MCF7; [8]) was over 100000 nM and the GI50 (MCF7; read-out: pGI50 (converted)) was 55 nM. It also gave a CC50 (MCF7; [9]) of over 100000 nM, a TGI (MCF7) of 741 nM and a GI50 (UACC-257) of 457 nM. For the same compound, the CC50 (UACC-257) was over 100000 nM, the TGI (UACC-257) was 2820 nM and the inhibition of growth at 10 µM (SR) was 91%. For the same compound, the “growth inhibition (GI)” value (NCI-H460) was 100%, the GI50 (K562) was 214 nM and the CC50 (K562) was over 100000 nM. The TGI (K562) was over 100000 nM, the GI50 (M14) was 331 nM and the CC50 (M14) was 6170 nM. For the same compound, the TGI (M14) was 1510 nM, the GI50 (SW-620; read-out: GI50) was 50 nM and the CC50 (SW-620; [8]) was over 50 nM. The GI50 (SW-620; read-out: pGI50 (converted)) was 56.2 nM, the CC50 (SW-620; [9]) was over 100000 nM and the TGI (SW-620) was 1200 nM. The Activity (C6 [7]) was “Active”, the GI50 (MDA-MB-231) was 631 nM and the CC50 (MDA-MB-231) was over 100000 nM. The TGI (MDA-MB-231) was 3310 nM, the GI50 (U-251) was 282 nM and the CC50 (U-251) was over 100000 nM. The TGI (U-251) was 1350 nM, the inhibition of growth at 10 µM (RPMI-8226) was 100% and the Activity (C6 [5]) was “Active”.
